# Measured values as given in patent publication US20250257325A1, “SYSTEM AND COMPOSITION OF R[…] FOR P[…] VIRUSES AND METHODS THEREOF” (The University of Hong Kong, priority 2024, published 2025).
# “Also recorded” adds a separate entry of the source.
# Assays:
# [1] = tested on: HRV-C3; assay: HRV-C3 replication and serial passage in airway organoids with CYT387 or DMSO (viral load by RT-qPCR); format: cell-based, human rhinovirus C; conditions: human airway organoids; for serial HRV-C propagation (P1-P5) and viral load versus DMSO-treated organoids: 1 μg/ml CYT387, media harvested at 96 h.p.i.
# Procedure: We examined HRV-C replication in airway organoids in the presence or absence of CYT387 (FIG. 2A). Briefly, we inoculated an HRV-C3+ medium (medium collected from organoids infected by an HRV-C3+ clinical specimen) onto the airway organoids pre-treated with 1 μg/ml CYT387 or DMSO. The infected organoids were further incubated with CYT387 (CYT thereafter) or DMSO for 96 hours, after which we harvested the culture medium (P1) to examine viral growth. P1 media from CYT- and mock-treated organoids were brought forward to P2 passage in the presence of CYT and DMSO, respectively (FIG. 2A). […] In the following P3 passage, we had to inoculate CYT-treated P2 media onto airway organoids, in which we continued CYT or DMSO treatment to verify the enhancement effect of CYT. This CYT-treated media inoculation, followed by CYT or DMSO treatment, was repeated in the subsequent P4 and P5 passage.
# A total of 9 HRV-C positive archived nasopharyngeal specimens from clinical patients were used for the study. Mature human airway and nasal organoids growing on 24-transwell inserts were washed twice with the basal medium (Advanced DMEM/F-12 (Gibco) supplemented with 1% HEPES, 1% GlutaMAX, and 1% Penicillin/Streptomycin), followed by virus inoculation with the indicated viral gene copy and subsequent incubation in the PD medium (PneumaCult-ALI medium (STEMCELL Technologies) supplemented with 10 μM DAPT and 10 μM Y27632), at 37° C. for 4 h. After incubation, the airway or nasal organoids were washed 3 times with the basal medium to remove residual inoculum. The apical and basolateral chambers were replenished with 300 μl and 500 μl PD medium, respectively. As for CYT387 treatment, airway and nasal organoids were pre-incubated in the PD medium with 1 μg/ml CYT387 (Invivogen, inh-cy87) or DMSO overnight. After virus inoculation, PD medium supplemented with 1 μg/ml CYT387 or DMSO was dispersed into apical and basolateral chambers to maintain the organoids. To assess the effect of temperature on viral growth, we infected nasal organoids with HRV-C3 and HRV-A1 at 100 viral gene copy/cell and maintained the organoids at 33° C. or 37° C. […] Culture media were harvested from the infected organoids at the indicated h.p.i. to detect viral replication. To investigate the antiviral effect of inhibitors on HRV-C replication, organoids were inoculated with HRV-A1 or HRV-C3 at 1000 viral gene copy/cell and incubated with the PD medium in the presence of 1 μM Rupintrivir, 3 μM Itraconazole, or DMSO. The culture media were collected at the indicated h.p.i. for viral load detection. […]
# [2] = tested on: HRV-C3; assay: HRV-C3 serial passage in nasal organoids with CYT387 or DMSO (viral load by RT-qPCR); format: cell-based, human rhinovirus C; conditions: human nasal organoids, CYT387 vs DMSO, 100 viral gene copy/cell, 96 h.p.i.
# Procedure: We inoculated nasal organoids with the HRV-C3+ medium collected from organoids infected with an HRV-C3+ clinical specimen in the presence of CYT or DMSO and collected culture media at 96 h.p.i. Due to the high viral load in DMSO-treated nasal organoids in a preliminary experiment, we changed the experimental design. Briefly, the virus-containing media from CYT- and DMSO-treated organoids were brought forward to the next round of infection with the CYT and DMSO treatment, respectively (FIG. 3A). […] Nonetheless, in the absence of CYT, nasal organoids derived from two different donors sustained four consecutive passages of HRV-C3 (FIG. 3B). We also tested HRV-C11+ (FIG. 3C) and HRV-C15+ (FIG. 3D) medium (the medium collected from organoids infected with an HRV-C11+ and HRV-C15+ clinical specimen respectively) in nasal organoids derived from another donor. The two subtypes of HRV-C were serially passaged three times with high viral loads, and more passages could be furthered, if necessary. Overall, nasal organoids per se sustained serial propagation of HRV-C without any intervention. […] HRV-C virions released from the nasal organoids were concentrated and applied to transmission electron microscope (TEM) examination. Virion particles sized around 30 nm, and empty capsid particles were readily discernible (FIG. 3F). […]
# [3] = tested on: HRV-C3; assay: Antiviral inhibition in airway organoids infected with HRV-C3 (viral load by RT-qPCR); format: cell-based, human rhinovirus C; conditions: human airway organoids, 1 μM Rupintrivir or 3 μM Itraconazole, 1000 viral gene copy/cell, compared with HRV-A
# Procedure: (§1) We then performed an antibody-blocking experiment in nasal organoids to assess the role of CDHR3 on HRV-C replication. We examined HRV-C replication in the nasal organoids in the presence of two a-CDHR3 antibodies or an isotypic IgG. […] Itraconazole^32, a repurposed antifungal drug with documented efficacy against rhinoviruses, was also tested.
# (§2) A total of 9 HRV-C positive archived nasopharyngeal specimens from clinical patients were used for the study. Mature human airway and nasal organoids growing on 24-transwell inserts were washed twice with the basal medium (Advanced DMEM/F-12 (Gibco) supplemented with 1% HEPES, 1% GlutaMAX, and 1% Penicillin/Streptomycin), followed by virus inoculation with the indicated viral gene copy and subsequent incubation in the PD medium (PneumaCult-ALI medium (STEMCELL Technologies) supplemented with 10 μM DAPT and 10 μM Y27632), at 37° C. for 4 h. After incubation, the airway or nasal organoids were washed 3 times with the basal medium to remove residual inoculum. The apical and basolateral chambers were replenished with 300 μl and 500 μl PD medium, respectively. As for CYT387 treatment, airway and nasal organoids were pre-incubated in the PD medium with 1 μg/ml CYT387 (Invivogen, inh-cy87) or DMSO overnight. […]
# [4] = tested on: HRV-A1; assay: Antiviral inhibition in airway organoids infected with HRV-A1 (viral load by RT-qPCR); format: cell-based, human rhinovirus A; conditions: human airway organoids, 1 μM Rupintrivir or 3 μM Itraconazole, 1000 viral gene copy/cell, compared with HRV-C
# Procedure: as §1, §2
Structure (SMILES),serial HRV-C propagation (P1-P5) and viral load versus DMSO-treated organoids [1],serial HRV-C propagation (P1-P5) and viral load versus DMSO-treated organoids ([1]; listed as CYT),"viral replication in P2 passage ([1]; 1 μg/ml CYT387, no viral growth in DMSO-treated organoids)","viral load in P1 media ([1]; 1 μg/ml CYT387 vs DMSO, first passage, 96 h.p.i.)",viral growth [2],inhibitory effect on HRV-C (relative viral load versus DMSO-treated organoids) [3],inhibitory effect on HRV-A (relative viral load versus DMSO-treated organoids) [4]
"N#CCNC(=O)c1ccc(-c2ccnc(Nc3ccc(N4CCOCC4)cc3)n2)cc1 [CYT387, Momelotinib]",enabled serial propagation,consecutively passaged five times; also recorded: higher viral load,sustained robust viral replication,elevated viral load,significantly boosted viral growth,,
CCOC(=O)/C=C/[C@H](C[C@@H]1CCNC1=O)NC(=O)[C@@H](CC(=O)[C@@H](NC(=O)c1cc(C)on1)C(C)C)Cc1ccc(F)cc1 [Rupintrivir],,,,,,more prominent inhibitory effect,more prominent inhibitory effect of both drugs on HRV-C than HRV-A
